According to patent US20100047844A1, “DIAGNOSTIC MARKER FOR FABRY DISEASE” (Academisch Ziekenhuis bij de Universiteit van Amsterdam, priority 2006, published 2010):
Entries after “also recorded” stand apart in the source; their conditions may differ.

How the values were obtained:
alpha-galactosidase B = target: T1, alpha-galactosidase B (Homo sapiens, UniProt P17050); experiment: Inhibition of alpha-galactosidase B by lyso-CTH; format: biochemical
T1 sequence (P17050 18-411): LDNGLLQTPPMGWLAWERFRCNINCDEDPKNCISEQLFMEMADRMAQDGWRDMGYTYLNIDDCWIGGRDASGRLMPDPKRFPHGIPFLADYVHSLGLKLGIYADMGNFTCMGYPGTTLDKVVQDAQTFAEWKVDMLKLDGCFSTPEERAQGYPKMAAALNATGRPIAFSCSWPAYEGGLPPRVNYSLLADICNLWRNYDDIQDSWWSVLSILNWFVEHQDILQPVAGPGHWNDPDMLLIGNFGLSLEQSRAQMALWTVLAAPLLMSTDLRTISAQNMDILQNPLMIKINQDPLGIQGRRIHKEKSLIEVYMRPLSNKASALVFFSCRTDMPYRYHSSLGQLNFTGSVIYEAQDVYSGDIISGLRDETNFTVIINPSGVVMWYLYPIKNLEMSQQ

[1] = Partitioning of lyso-CTH in extraction from plasma samples; format: physicochemical
Description: An optimal extraction procedure for lyso-CTH from plasma samples was established. A double extraction was carried out, first a Bligh and Dyer extraction followed by butanol extraction.

alpha-galactosidase A = target: T2, alpha-galactosidase A (Homo sapiens, UniProt P06280); experiment: Inhibition of alpha-galactosidase A by lyso-CTH; format: biochemical
T2 sequence (P06280 32-429): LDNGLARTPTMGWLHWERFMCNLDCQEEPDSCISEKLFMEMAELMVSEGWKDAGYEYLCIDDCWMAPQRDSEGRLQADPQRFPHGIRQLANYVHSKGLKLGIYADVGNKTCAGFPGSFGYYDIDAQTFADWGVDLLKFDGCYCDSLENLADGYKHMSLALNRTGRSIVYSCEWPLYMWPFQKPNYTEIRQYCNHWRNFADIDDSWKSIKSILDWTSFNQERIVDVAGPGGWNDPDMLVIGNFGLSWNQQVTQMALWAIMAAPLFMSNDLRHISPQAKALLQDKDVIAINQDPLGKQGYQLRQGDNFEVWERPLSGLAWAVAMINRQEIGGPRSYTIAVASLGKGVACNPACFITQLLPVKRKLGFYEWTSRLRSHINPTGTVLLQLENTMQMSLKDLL

SMC-41 cell line = experiment: In vitro toxicity: 3H thymidine incorporation and proliferation in SMC-41 cell line; format: cell-based; conditions: lyso-CTH 0.065-0.65 μM, as found in plasma of Fabry patients
Description: The toxic effect of lyso-CTH was determined in vitro in SMC-41 cell line. ^3H thymidine incorporation (per 24 h) was determined as a function of lyso-CTH concentration.

CCCCCCCCCCCCC/C=C/[C@@H](O)[C@@H](N)CO[C@@H]1O[C@H](CO)[C@@H](O[C@@H]2O[C@H](CO)[C@H](O[C@H]3O[C@H](CO)[C@H](O)[C@H](O)[C@H]3O)[C@H](O)[C@H]2O)[C@H](O)[C@H]1O [lyso-CTH, lyso-ceramide trihexosamide]
inhibition of alpha-galactosidase B (alpha-galactosidase B): potent inhibitor; also recorded: inhibits | Partitioning of lyso-CTH (% of total), lower phase ([1]; Bligh and Dyer extraction): 10 % of total | Partitioning of lyso-CTH (% of total), upper phase ([1]; Bligh and Dyer extraction): 90 % of total | Partitioning of lyso-CTH (% of total), lower phase ([1]; butanol/water extraction): 2 % of total | Partitioning of lyso-CTH (% of total), upper phase ([1]; butanol/water extraction): 99 % of total | inhibition of alpha-galactosidase A (alpha-galactosidase A): potent inhibitor; also recorded: inhibits | 3H thymidine incorporation (per 24 h) (SMC-41 cell line): increased isotope incorporation | smooth muscle cell proliferation (SMC-41 cell line): promote in vitro smooth muscle cell proliferation; also recorded: increased proliferation
